# Literature values as cited in patent US5200396A, “Method of treating neurodegenerative disorders using epidermal growth factor” (Zambon Group S.p.A., priority 1990, dated 1993).
# Test system: rats with lesion of the nigrostriatal pathway
# Details: lesion of the nigrostriatal pathway model; Brain Research, 459, 398, (1988)
substance,measurement,value
NGF: growth factor acting as trophic factor towards some neuronal types,efficacy in changing the rotational behaviour of the animal,"did not show, in practice, any efficacy"
